± gives the expanded uncertainty stated by the source.
Assay: xn = mol fraction of the nth substance listed
Settings: 101 kPa, Liquid; for mass density: Pycnometric method; for electrical conductivity: conductivity meter LF 340 and a standard conductivity cell TetraCon

C=CCn1cc[n+](CCOC)c1.O=S(=O)([N-]S(=O)(=O)C(F)(F)F)C(F)(F)F + O=S(=O)([N-]S(=O)(=O)C(F)(F)F)C(F)(F)F.[Li+]
Settings | electrical conductivity [S/m] | mass density [kg/m3] | viscosity [mPa·s]
308 K, x2 = 0.176 | – | 1480.1 ± 2.4 | 56.2 ± 2.4
308 K, x2 = 0.2508 | – | 1505.3 ± 2.3 | 72.2 ± 3.5
308 K, x2 = 0.3254 | – | 1525.3 ± 2.5 | 116.4 ± 8
308.2 K, x2 = 0.176 | 0.3 ± 0.018 | – | –
308.2 K, x2 = 0.4001 | 0.0856 ± 0.0051 | – | –
308.7 K, x2 = 0 | 0.546 ± 0.033 | – | –
308.7 K, x2 = 0.2508 | 0.228 ± 0.014 | – | –
308.8 K, x2 = 0.3254 | 0.16 ± 0.0096 | – | –
308.9 K, x2 = 0.1007 | 0.425 ± 0.026 | – | –
309 K, x2 = 0 | – | 1437 ± 2.2 | 23.7 ± 1
309 K, x2 = 0.1007 | – | 1459.7 ± 2.3 | 38 ± 1.7
309.2 K, x2 = 0.4001 | – | – | 221.6 ± 22
309.24 K, x2 = 0.4001 | – | 1551.1 ± 2.5 | –
313 K, x2 = 0.176 | – | 1475.4 ± 2.3 | 44.4 ± 2
313 K, x2 = 0.2508 | – | 1500.4 ± 2.4 | 57.1 ± 2.4
313 K, x2 = 0.3254 | – | 1520.3 ± 2.4 | 89.4 ± 4.9
313.3 K, x2 = 0 | 0.627 ± 0.038 | – | –
313.4 K, x2 = 0.4001 | 0.113 ± 0.0068 | – | –
313.5 K, x2 = 0.3254 | 0.2 ± 0.012 | – | –
313.9 K, x2 = 0.176 | 0.372 ± 0.022 | – | –
314 K, x2 = 0 | – | 1432.3 ± 2.2 | 20.3 ± 0.9
314 K, x2 = 0.4001 | – | 1546.3 ± 2.5 | 168.3 ± 14
314.4 K, x2 = 0.1007 | 0.514 ± 0.031 | – | –
314.4 K, x2 = 0.2508 | 0.284 ± 0.017 | – | –
315 K, x2 = 0.1007 | – | 1453.9 ± 2.2 | 27.9 ± 1.2
317 K, x2 = 0 | – | 1429.6 ± 2.2 | 17.8 ± 0.8
317 K, x2 = 0.2508 | – | 1496.4 ± 2.4 | 47.8 ± 2.1
317 K, x2 = 0.3254 | – | 1516.3 ± 2.4 | 75.1 ± 3.7
317.9 K, x2 = 0.2508 | 0.327 ± 0.02 | – | –
318 K, x2 = 0.176 | – | 1470.7 ± 2.3 | 35.8 ± 1.6
318 K, x2 = 0.4001 | – | 1542.3 ± 2.5 | 138.5 ± 10
318.1 K, x2 = 0 | 0.72 ± 0.043 | – | –
318.1 K, x2 = 0.4001 | 0.141 ± 0.0085 | – | –
319 K, x2 = 0.3254 | 0.248 ± 0.015 | – | –
319.2 K, x2 = 0.1007 | 0.596 ± 0.036 | – | –
319.5 K, x2 = 0.1007 | – | 1449.6 ± 2.2 | 22.8 ± 1
319.6 K, x2 = 0.176 | 0.453 ± 0.027 | – | –
322.4 K, x2 = 0.176 | 0.493 ± 0.03 | – | –
323 K, x2 = 0.176 | – | 1466 ± 2.3 | 29.6 ± 1.3
323 K, x2 = 0.3254 | – | 1510.4 ± 2.4 | 56.8 ± 2.4
323.3 K, x2 = 0 | 0.828 ± 0.05 | – | –
323.5 K, x2 = 0 | – | 1423.5 ± 2.2 | 14.6 ± 0.6
323.9 K, x2 = 0.3254 | 0.3 ± 0.018 | – | –
324 K, x2 = 0.2508 | – | 1489.5 ± 2.4 | 37.4 ± 1.6
324 K, x2 = 0.4001 | – | 1536.2 ± 2.5 | 100.9 ± 6.1
324.1 K, x2 = 0.4001 | 0.183 ± 0.011 | – | –
324.4 K, x2 = 0.1007 | 0.694 ± 0.042 | – | –
324.6 K, x2 = 0.2508 | 0.41 ± 0.025 | – | –
325.2 K, x2 = 0.1007 | – | 1444.2 ± 2.2 | 19.6 ± 0.9
327 K, x2 = 0.3254 | – | 1506.5 ± 2.4 | 49 ± 2.1
327.2 K, x2 = 0.1007 | – | 1442.3 ± 2.2 | 17.7 ± 0.8
327.2 K, x2 = 0.176 | – | 1462 ± 2.3 | 25.4 ± 1.1
327.5 K, x2 = 0.4001 | 0.214 ± 0.013 | – | –
327.9 K, x2 = 0 | 0.935 ± 0.056 | – | –
328 K, x2 = 0 | – | 1419.4 ± 2.2 | 13.1 ± 0.6
328 K, x2 = 0.2508 | – | 1485.6 ± 2.3 | 32.3 ± 1.4
328 K, x2 = 0.4001 | – | 1532.2 ± 2.5 | 82.1 ± 4.3
328.5 K, x2 = 0.2508 | 0.467 ± 0.028 | – | –
328.7 K, x2 = 0.176 | 0.588 ± 0.035 | – | –
328.8 K, x2 = 0.3254 | 0.353 ± 0.021 | – | –
328.9 K, x2 = 0.1007 | 0.778 ± 0.047 | – | –
332.9 K, x2 = 0 | 1.06 ± 0.063 | – | –
333.1 K, x2 = 0.3254 | 0.405 ± 0.024 | – | –
333.4 K, x2 = 0.2508 | 0.535 ± 0.032 | – | –
334 K, x2 = 0 | – | 1413.9 ± 2.2 | 11.2 ± 0.5
334 K, x2 = 0.1007 | 0.885 ± 0.053 | – | –
334 K, x2 = 0.176 | – | 1455.7 ± 2.3 | 20.4 ± 0.9
334 K, x2 = 0.2508 | – | 1479.8 ± 2.4 | 25.9 ± 1.1
334 K, x2 = 0.3254 | – | 1499.7 ± 2.4 | 37.1 ± 1.6
334 K, x2 = 0.4001 | – | 1526.3 ± 2.5 | 63.2 ± 2.8
334.2 K, x2 = 0.1007 | – | 1435.7 ± 2.2 | 15.3 ± 0.7
334.3 K, x2 = 0.4001 | 0.275 ± 0.017 | – | –
334.5 K, x2 = 0.176 | 0.691 ± 0.041 | – | –
337 K, x2 = 0.3254 | – | 1496.9 ± 2.4 | 32 ± 1.4
337.4 K, x2 = 0.2508 | 0.6 ± 0.036 | – | –
337.6 K, x2 = 0 | 1.18 ± 0.071 | – | –
338 K, x2 = 0.176 | – | 1452.1 ± 2.3 | 18.2 ± 0.8
338 K, x2 = 0.2508 | – | 1475.9 ± 2.3 | 22.9 ± 1
338.1 K, x2 = 0.1007 | – | 1432 ± 2.2 | 12.9 ± 0.6
338.5 K, x2 = 0 | – | 1409.9 ± 2.2 | 10 ± 0.4
338.5 K, x2 = 0.3254 | 0.474 ± 0.028 | – | –
338.9 K, x2 = 0.176 | 0.76 ± 0.046 | – | –
339 K, x2 = 0.1007 | 0.986 ± 0.059 | – | –
339 K, x2 = 0.4001 | – | 1521.4 ± 2.5 | 54.2 ± 2.2
339.3 K, x2 = 0.4001 | 0.323 ± 0.019 | – | –
343 K, x2 = 0 | 1.33 ± 0.08 | – | –
343 K, x2 = 0.3254 | – | 1491.1 ± 2.4 | 27.3 ± 1.2
343.2 K, x2 = 0.1007 | – | 1427.3 ± 2.2 | 11.4 ± 0.5
343.3 K, x2 = 0.3254 | 0.539 ± 0.032 | – | –
343.5 K, x2 = 0.2508 | 0.698 ± 0.042 | – | –
343.8 K, x2 = 0.176 | 0.858 ± 0.051 | – | –
344 K, x2 = 0 | – | 1404.9 ± 2.2 | 8.8 ± 0.4
344 K, x2 = 0.176 | – | 1446.6 ± 2.3 | 15.4 ± 0.7
344 K, x2 = 0.4001 | – | 1516.5 ± 2.5 | 44.8 ± 2
344.4 K, x2 = 0.4001 | 0.385 ± 0.023 | – | –
344.5 K, x2 = 0.1007 | 1.11 ± 0.066 | – | –
345 K, x2 = 0.2508 | – | 1469.2 ± 2.3 | 19.2 ± 0.8
347 K, x2 = 0.3254 | – | 1487.3 ± 2.4 | 24 ± 1
348 K, x2 = 0 | – | 1401.3 ± 2.2 | 8.2 ± 0.4
348.1 K, x2 = 0 | 1.48 ± 0.089 | – | –
348.2 K, x2 = 0.2508 | 0.784 ± 0.047 | – | –
348.3 K, x2 = 0.1007 | 1.19 ± 0.072 | – | –
348.5 K, x2 = 0.3254 | 0.62 ± 0.037 | – | –
348.6 K, x2 = 0.176 | 0.954 ± 0.057 | – | –
348.7 K, x2 = 0.4001 | 0.436 ± 0.026 | – | –
349 K, x2 = 0.1007 | – | 1421.9 ± 2.2 | 10.3 ± 0.5
349 K, x2 = 0.176 | – | 1442 ± 2.3 | 13.7 ± 0.6
349 K, x2 = 0.2508 | – | 1465.4 ± 2.3 | 17.1 ± 0.8
349 K, x2 = 0.4001 | – | 1511.6 ± 2.5 | 38 ± 1.7
352 K, x2 = 0 | 1.6 ± 0.096 | – | –
352.5 K, x2 = 0.2508 | 0.858 ± 0.051 | – | –
353.3 K, x2 = 0.3254 | 0.694 ± 0.042 | – | –
353.5 K, x2 = 0.4001 | 0.498 ± 0.03 | – | –
354.2 K, x2 = 0 | – | 1395.8 ± 2.2 | 7 ± 0.3
354.5 K, x2 = 0.1007 | – | 1416.9 ± 2.2 | 9.5 ± 0.4
354.9 K, x2 = 0.1007 | 1.35 ± 0.081 | – | –
354.9 K, x2 = 0.176 | 1.09 ± 0.065 | – | –
355 K, x2 = 0.176 | – | 1436.6 ± 2.2 | 11.9 ± 0.5
355 K, x2 = 0.2508 | – | 1459.8 ± 2.4 | 14.6 ± 0.6
355 K, x2 = 0.4001 | – | 1505.8 ± 2.5 | 31.7 ± 1.4
356 K, x2 = 0.3254 | – | 1478.8 ± 2.4 | 18.9 ± 0.8
